Measured values: patent publication US5185452A, “Benzheterocyclyl sulphones” (Imperial Chemical Industries PLC, priority 1989, dated 1993)
pIC50: −log10 of the molar value.

Target: T1, aldose reductase (Bos taurus, UniProt P16116)
T1 construct: partially purified aldose reductase is isolated in known manner from bovine lenses; from tissue; host or cells: bovine lenses
Assay: in vitro inhibition of partially purified aldose reductase isolated from bovine lenses (reduction of glucose to sorbitol, spectrophotometric)
Format: biochemical
Details: in vitro test
Source text: Thus, in a standard procedure partially purified aldose reductase is isolated in known manner from bovine lenses. The percentage inhibition of this enzyme's ability in vitro to catalyse the reduction of aldoses to polyhydric alcohols, and particularly to reduce glucose to sorbitol, caused by a test compound can then be determined using standard spectrophotometric methods.

## Cc1c(C)c(S(=O)(=O)C[N+](=O)[O-])c(C)c2c1OC(C)(C)CC2 [Example 2, 2,2,5,7,8-pentamethyl-6-(nitromethylsulphonyl)-chroman]
  pIC50: 7.89
